Consider one compound from PMC10355191 (Chemical research in toxicology, 2023).

This test deals with α2A-adrenergic receptor (Homo sapiens, UniProt P08913).
Chain of α2A-adrenergic receptor (P08913 whole entry): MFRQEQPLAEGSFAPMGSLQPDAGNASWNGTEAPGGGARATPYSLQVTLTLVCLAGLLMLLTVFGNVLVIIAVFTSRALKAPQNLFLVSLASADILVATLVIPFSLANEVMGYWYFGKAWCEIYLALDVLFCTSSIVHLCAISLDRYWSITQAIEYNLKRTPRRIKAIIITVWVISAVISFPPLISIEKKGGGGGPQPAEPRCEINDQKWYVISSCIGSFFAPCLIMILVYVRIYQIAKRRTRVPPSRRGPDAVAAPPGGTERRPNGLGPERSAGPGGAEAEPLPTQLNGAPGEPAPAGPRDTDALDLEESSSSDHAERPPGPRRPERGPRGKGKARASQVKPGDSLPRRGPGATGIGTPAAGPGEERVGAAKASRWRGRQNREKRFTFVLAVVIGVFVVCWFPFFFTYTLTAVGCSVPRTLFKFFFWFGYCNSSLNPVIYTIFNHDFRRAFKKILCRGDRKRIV

With `N=C(N)N/N=C/c1c(Cl)cccc1Cl` [E-GA, trans-guanabenz], the “% inhibition at 1 μM” value is 50.
